# Measurements taken from US9426986B2, “Hyperbranched polycarbonates for solubilizing poorly soluble active substances” (BASF SE, priority 2009, dated 2016).
# Columns and labels:
# [1] = Solubilization experiments, general procedure 1 (active ingredient content by UV spectroscopy or HPLC); conditions: pH 7, aqueous buffer, thermodynamic from solid
# Method: Approximately 2 g of polymer were weighed out into a 50 mL glass beaker. Then 0.2 g of each active ingredient was weighed into the batch to give a supersaturated solution. […] The mixture was then stirred at room temperature for 72 hours, using a magnetic stirrer. After a rest time of one hour, unsolubilized active ingredient was removed by filtration. The resulting clear or opaque solution was then analyzed for its active ingredient content by means of UV spectroscopy or HPLC.
# [2] = Method: Approximately 100 mg of polymer were weighed out into a 50 mL glass beaker and dissolved in 9.900 g of distilled water. Then 100 mg of each active ingredient was weighed into the batch to give a supersaturated solution. The mixture was then stirred at room temperature for 24 hours, using a magnetic stirrer. After a rest time of one hour, unsolubilized active ingredient was removed by centrifuging. The resulting clear or opaque solution was then analyzed for its active ingredient content by means of UV spectroscopy.
# The solubility was determined as described in procedure 2.
Compound,solubility at 72 h [1],Solubility of Fipronil in the presence of polymer [2]
NC(=O)N1c2ccccc2C=Cc2ccccc21 [Carbamazepine],0.14 mg/mL,
Clc1ccccc1C(c1ccccc1)(c1ccccc1)n1ccnc1 [Clotrimazole],< 0.1 mg/mL,
CN1C(C(=O)Nc2ccccn2)=C(O)c2ccccc2S1(=O)=O [Piroxicam],0.42 mg/mL,
polyethylene glycol monomethyl ether [PEG monomethyl ether],,0.006 mg/mL
